Measured values published in PubChem BioAssay AID1963422 (Molecular Pharmacology Branch, DTP, NCI, 2024).

System: 463943-066-T-J2-PDC complex spheroid growth
Assay: Anticancer human tumor 463943-066-T-J2-PDC patient-derived colon adenocarcinoma cell line growth inhibition [Asc]
Details: for IC50: curve of first compound; for viability, T/C: stronger effect = lower value
Outline: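 Complex solid-tumor spheroids incorporating human endothelial and mesenchymal stem cells received single agents or combinations over half-log dilution ranges anchored to clinical Cmax.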

[1] = second compound 0.00949 µM, first compound 0.0316 µM
[2] = second compound 0.00949 µM, first compound 0.1 µM
[3] = second compound 0.00949 µM, first compound 0.316 µM
[4] = second compound 0.00949 µM, first compound 1 µM
[5] = second compound 0.00949 µM, first compound 3.16 µM
[6] = second compound 0.00949 µM, first compound 10 µM
[7] = second compound 0.03 µM, first compound 0.0316 µM
[8] = second compound 0.03 µM, first compound 0.1 µM
[9] = second compound 0.03 µM, first compound 0.316 µM
[10] = second compound 0.03 µM, first compound 1 µM
[11] = second compound 0.03 µM, first compound 3.16 µM
[12] = second compound 0.03 µM, first compound 10 µM
[13] = second compound 0.0949 µM, first compound 0.0316 µM
[14] = second compound 0.0949 µM, first compound 0.1 µM
[15] = second compound 0.0949 µM, first compound 0.316 µM
[16] = second compound 0.0949 µM, first compound 1 µM
[17] = second compound 0.0949 µM, first compound 3.16 µM
[18] = second compound 0.0949 µM, first compound 10 µM
[19] = second compound 0.3 µM, first compound 0.0316 µM
[20] = second compound 0.3 µM, first compound 0.1 µM
[21] = second compound 0.3 µM, first compound 0.316 µM
[22] = second compound 0.3 µM, first compound 1 µM
[23] = second compound 0.3 µM, first compound 3.16 µM
[24] = second compound 0.3 µM, first compound 10 µM
[25] = second compound 0.949 µM, first compound 0.0316 µM
[26] = second compound 0.949 µM, first compound 0.1 µM
[27] = second compound 0.949 µM, first compound 0.316 µM
[28] = second compound 0.949 µM, first compound 1 µM
[29] = second compound 0.949 µM, first compound 3.16 µM
[30] = second compound 0.949 µM, first compound 10 µM
[31] = second compound 3 µM, first compound 0.0316 µM
[32] = second compound 3 µM, first compound 0.1 µM
[33] = second compound 3 µM, first compound 0.316 µM
[34] = second compound 3 µM, first compound 1 µM
[35] = second compound 3 µM, first compound 3.16 µM
[36] = second compound 3 µM, first compound 10 µM
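Also: compound exposure lasted 7 days.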
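For viability, T/C in this document: 100% = DMSO vehicle control wells.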

SMILES: C#Cc1c(F)ccc2cc(O)cc(-c3ncc4c(N5CC6CCC(C5)N6)nc(OCC56CCCN5CC(F)C6)nc4c3F)c12 (stereo not drawn) + CCN1C(C(=O)NC23CCC(C(=O)O)(CC2)CC3)C(c2cccc(Cl)c2F)C2(C(=O)Nc3cc(Cl)ccc32)C12CCCCC2
- IC50 (second compound 0.00949 µM): > 10 µM
- IC50 (second compound 0.03 µM): > 10 µM
- IC50 (second compound 0.0949 µM): > 10 µM
- IC50 (second compound 0.3 µM): > 10 µM
- IC50 (second compound 0.949 µM): > 10 µM
- IC50 (second compound 3 µM): > 10 µM
- viability, T/C [1]: 94.4%
- viability, T/C [2]: 99.3%
- viability, T/C [3]: 94.3%
- viability, T/C [4]: 101%
- viability, T/C [5]: 108%
- viability, T/C [6]: 88.3%
- viability, T/C [7]: 102%
- viability, T/C [8]: 90.5%
- viability, T/C [9]: 94.1%
- viability, T/C [10]: 101%
- viability, T/C [11]: 103%
- viability, T/C [12]: 82.5%
- viability, T/C [13]: 91.5%
- viability, T/C [14]: 88.8%
- viability, T/C [15]: 94.2%
- viability, T/C [16]: 93%
- viability, T/C [17]: 91.7%
- viability, T/C [18]: 94.1%
- viability, T/C [19]: 88.4%
- viability, T/C [20]: 81.6%
- viability, T/C [21]: 87%
- viability, T/C [22]: 83%
- viability, T/C [23]: 83.1%
- viability, T/C [24]: 85.4%
- viability, T/C [25]: 74%
- viability, T/C [26]: 73%
- viability, T/C [27]: 78.8%
- viability, T/C [28]: 77.9%
- viability, T/C [29]: 75.3%
- viability, T/C [30]: 71.2%
- viability, T/C [31]: 70%
- viability, T/C [32]: 71.8%
- viability, T/C [33]: 70.5%
- viability, T/C [34]: 73.3%
- viability, T/C [35]: 72.1%
- viability, T/C [36]: 67.6%

SMILES: C=C(F)C(=O)N1CCN(c2nc(OCC3CCCN3C)nc3c2CCN(c2cccc4cccc(Cl)c24)C3)CC1CC#N (stereo not drawn) + CCN1C(C(=O)NC23CCC(C(=O)O)(CC2)CC3)C(c2cccc(Cl)c2F)C2(C(=O)Nc3cc(Cl)ccc32)C12CCCCC2
- IC50 (second compound 0.00949 µM): 6.05 µM
- IC50 (second compound 0.03 µM): 6.36 µM
- IC50 (second compound 0.0949 µM): 6.24 µM
- IC50 (second compound 0.3 µM): 6.01 µM
- IC50 (second compound 0.949 µM): 6.26 µM
- IC50 (second compound 3 µM): 5.8 µM
- viability, T/C [1]: 97.4%
- viability, T/C [2]: 92.9%
- viability, T/C [3]: 103%
- viability, T/C [4]: 104%
- viability, T/C [5]: 91.9%
- viability, T/C [6]: 17.2%
- viability, T/C [7]: 93.4%
- viability, T/C [8]: 93.9%
- viability, T/C [9]: 93.1%
- viability, T/C [10]: 101%
- viability, T/C [11]: 97.3%
- viability, T/C [12]: 20.3%
- viability, T/C [13]: 91.7%
- viability, T/C [14]: 87.3%
- viability, T/C [15]: 88.3%
- viability, T/C [16]: 97.8%
- viability, T/C [17]: 87.3%
- viability, T/C [18]: 23.9%
- viability, T/C [19]: 82%
- viability, T/C [20]: 85.4%
- viability, T/C [21]: 83.6%
- viability, T/C [22]: 90.5%
- viability, T/C [23]: 79.1%
- viability, T/C [24]: 26.3%
- viability, T/C [25]: 71.9%
- viability, T/C [26]: 81%
- viability, T/C [27]: 76%
- viability, T/C [28]: 83.6%
- viability, T/C [29]: 78.1%
- viability, T/C [30]: 30.8%
- viability, T/C [31]: 70.8%
- viability, T/C [32]: 71.5%
- viability, T/C [33]: 74%
- viability, T/C [34]: 78.9%
- viability, T/C [35]: 77.5%
- viability, T/C [36]: 28%

SMILES: C=CC(=O)N1CCN(c2nc(=O)n(-c3c(C)ccnc3C(C)C)c3nc(-c4c(O)cccc4F)c(F)cc23)C(C)C1 (stereo not drawn) + CCN1C(C(=O)NC23CCC(C(=O)O)(CC2)CC3)C(c2cccc(Cl)c2F)C2(C(=O)Nc3cc(Cl)ccc32)C12CCCCC2
- IC50 (second compound 0.00949 µM): > 10 µM
- IC50 (second compound 0.03 µM): > 10 µM
- IC50 (second compound 0.0949 µM): > 10 µM
- IC50 (second compound 0.3 µM): > 10 µM
- IC50 (second compound 0.949 µM): > 10 µM
- IC50 (second compound 3 µM): > 10 µM
- viability, T/C [1]: 94.4%
- viability, T/C [2]: 96.5%
- viability, T/C [3]: 93%
- viability, T/C [4]: 107%
- viability, T/C [5]: 104%
- viability, T/C [6]: 98%
- viability, T/C [7]: 108%
- viability, T/C [8]: 96.8%
- viability, T/C [9]: 99.9%
- viability, T/C [10]: 103%
- viability, T/C [11]: 104%
- viability, T/C [12]: 88.4%
- viability, T/C [13]: 92.4%
- viability, T/C [14]: 88.6%
- viability, T/C [15]: 91%
- viability, T/C [16]: 93.2%
- viability, T/C [17]: 97.3%
- viability, T/C [18]: 86.3%
- viability, T/C [19]: 84.4%
- viability, T/C [20]: 84.8%
- viability, T/C [21]: 86.2%
- viability, T/C [22]: 85.5%
- viability, T/C [23]: 86.7%
- viability, T/C [24]: 80.3%
- viability, T/C [25]: 76.5%
- viability, T/C [26]: 77%
- viability, T/C [27]: 74%
- viability, T/C [28]: 77%
- viability, T/C [29]: 78.2%
- viability, T/C [30]: 77%
- viability, T/C [31]: 71.7%
- viability, T/C [32]: 73.3%
- viability, T/C [33]: 75.9%
- viability, T/C [34]: 77.6%
- viability, T/C [35]: 72.5%
- viability, T/C [36]: 72.5%

SMILES: CNC(C)C(=O)NC1CN(S(=O)(=O)c2cccc(S(=O)(=O)N3CCC4CCC(C(=O)NC(c5ccccc5)c5ccccc5)N4C(=O)C(NC(=O)C(C)NC)C3)c2)CCC2CCC(C(=O)NC(c3ccccc3)c3ccccc3)N2C1=O (stereo not drawn) + CCN1C(C(=O)NC23CCC(C(=O)O)(CC2)CC3)C(c2cccc(Cl)c2F)C2(C(=O)Nc3cc(Cl)ccc32)C12CCCCC2
- IC50 (second compound 0.00949 µM): > 1 µM
- IC50 (second compound 0.03 µM): > 1 µM
- IC50 (second compound 0.0949 µM): > 1 µM
- IC50 (second compound 0.3 µM): > 1 µM
- IC50 (second compound 0.949 µM): > 1 µM
- IC50 (second compound 3 µM): > 1 µM
- viability, T/C (second compound 0.00949 µM, first compound 0.00316 µM): 96.9%
- viability, T/C (second compound 0.00949 µM, first compound 0.01 µM): 93.3%
- viability, T/C [1]: 99.3%
- viability, T/C [2]: 93.7%
- viability, T/C [3]: 95.9%
- viability, T/C [4]: 86.8%
- viability, T/C (second compound 0.03 µM, first compound 0.00316 µM): 103%
- viability, T/C (second compound 0.03 µM, first compound 0.01 µM): 96.6%
- viability, T/C [7]: 89.4%
- viability, T/C [8]: 93.2%
- viability, T/C [9]: 95%
- viability, T/C [10]: 85%
- viability, T/C (second compound 0.0949 µM, first compound 0.00316 µM): 94.2%
- viability, T/C (second compound 0.0949 µM, first compound 0.01 µM): 93.2%
- viability, T/C [13]: 81.9%
- viability, T/C [14]: 89.3%
- viability, T/C [15]: 91.8%
- viability, T/C [16]: 86.1%
- viability, T/C (second compound 0.3 µM, first compound 0.00316 µM): 83.8%
- viability, T/C (second compound 0.3 µM, first compound 0.01 µM): 81.1%
- viability, T/C [19]: 82.1%
- viability, T/C [20]: 81.9%
- viability, T/C [21]: 84.6%
- viability, T/C [22]: 81%
- viability, T/C (second compound 0.949 µM, first compound 0.00316 µM): 73.1%
- viability, T/C (second compound 0.949 µM, first compound 0.01 µM): 85.1%
- viability, T/C [25]: 76.1%
- viability, T/C [26]: 75.8%
- viability, T/C [27]: 76.8%
- viability, T/C [28]: 71.5%
- viability, T/C (second compound 3 µM, first compound 0.00316 µM): 71.1%
- viability, T/C (second compound 3 µM, first compound 0.01 µM): 73.2%
- viability, T/C [31]: 74.7%
- viability, T/C [32]: 69.3%
- viability, T/C [33]: 75.5%
- viability, T/C [34]: 69.4%
